The conditions of data set [1]: 298.15 K; 101.33 kPa; Liquid; Buoyancy - hydrostatic balance.
The nature of data set [2]: refractive index (Na D-line) (dimensionless). Particulars: 298.15 K; 101.33 kPa; Liquid; Standard Abbe refractometry.

For 8 molecules, mass density and refractive index results are on record in the NIST ThermoML archive (doi:10.1021/acs.jced.8b00120).

The structures appear in SMILES notation. ± gives the expanded uncertainty stated by the source.

What is called mass density is mass per unit of volume. As a reminder, the refractive index is the speed of light in vacuum divided by its phase velocity in the sample. Turning to `CC#N` [acetonitrile], the mass density in data set [1] is reported as 785.712 ± 10 kg/m3. In addition, the refractive index in data set [2] was 1.3452 ± 0.001.

On to `O` [water], for which the refractive index in data set [2] is 1.3324 ± 0.001.

As for `CN(C)C=O` [dimethylformamide], in data set [1], the mass density was determined as 944.689 ± 10 kg/m3. Moreover, the refractive index in data set [2] was 1.4279 ± 0.0011. In the same order, the values of `CO` [methanol] are 791.814 ± 10 kg/m3 and 1.3279 ± 0.0011. In the same order, the values of `CC(C)CO` [2-methyl-1-propanol] are 801.652 ± 10 kg/m3 and 1.394 ± 0.0011. In the case of `CC(C)c1ccccc1` [isopropylbenzene], the mass density in data set [1] is 864.115 ± 10 kg/m3. In addition, the refractive index in data set [2] is on record as 1.4907 ± 0.0011. Taken in the same sequence, the figures for `CC(=O)CC(C)C` [4-methylpentan-2-one] were 800.589 ± 10 kg/m3 and 1.3964 ± 0.0011. Taken in the same sequence, the figures for `CCCCO` [butan-1-ol] were 805.881 ± 10 kg/m3 and 1.3975 ± 0.0011.
